Reference: US5466717A, “Halogenated 4'-methoxyacetophenones as microbicides and preservatives” (Buckman Laboratories Int'l, Inc., priority 1993, dated 1995)
In brackets after ≈: the same amount, converted by molar mass. Like-named read-outs stand apart in the source and are kept apart here.

Assays:
[1] = tested on: FUNGI; assay: Long term control of fungal growth on a paint film, ASTM D3456 (Table 8); settings: latex paint on Southern yellow pine, 5 years and 5 months
Method: (§1) The effectiveness of halogenated 4'-methoxyacetophenones were evaluated for long term control of fungal and algal growth on a paint film following ASTM Procedure #D3456 (ASTM, 1916 Race St., Philadelphia, Pa. 19103). The test compared the effectiveness of compound 2, 2,2,3'-tribromo-4'-methoxyacetophenone, in latex paint with the commercially available biocides such as Nopcocide-96, and Troysan Polyphase over a period of 5 years and 5 months. The test paint was brush-applied (2 coats) over Southern yellow pine panels. A minimum of 24 hours was allowed between coats. The panels were rated based on the ASTM Procedure #D3274: […]

[2] = tested on: ALGAE; assay: Long term control of algal growth on a paint film, ASTM D3456 (Table 8); settings: latex paint on Southern yellow pine, 5 years and 5 months
Method: as §1

[3] = tested on: Chlorella pyrenoidosa; assay: Growth inhibition of algae in Difco Algae Broth (Table 6); assay type: cell-based; settings: Auxenochlorella pyrenoidosa, 672 h, read-out: Minimum inhibitory concentration
Method: The growth-inhibiting activity of the method of the invention against the algae Chlorella pyrenoidosa was evaluated at two different pH levels in Difco Algae Broth. The content of the broth was as follows: Forty-gram portions of the algae medium were added to 250 mL Erlenmeyer flasks fitted with loose metal caps and were then sterilized. Each of the following substances was then added to the flasks in the order listed: (1) Sterile algae medium as required to bring the total weight of the contents of each flask to 50 grams, after allowing for all subsequent additions specified below. (2) A solution of the toxicant or of a control agent to be evaluated in each test, to give the concentration desired in parts per million by weight. (3) Chlorella pyrenoidosa, in amounts sufficient to give excellent growth in the controls after 14 days. This was achieved by adding 1 milliliter of a 14 day old culture having luxuriant growth. The Chlorella pyrenoidosa culture was obtained from American Type Culture Collection No. 7516. Control experiments were carried out where no toxicants were employed. In the algicidal tests the growth of algae in the nutrient is lush green and can be seen with the naked eye. Since the minimum inhibitory concentrations of the compounds in this example are those which result in complete inhibition, evaluation of the test results is not subjective. After the inoculum of the test algae was added, the flasks were incubated at a temperature of 28°±2° C. under fluorescent illumination of 250 foot-candle intensity (8 hours light, 16 hours darkness) for a period adequate for growth in the controls (those portions of medium which contained no toxicant). Observations of growth were made at 7-day intervals. Minimum inhibitory concentrations are those that prevented complete growth after 28 days.

[4] = tested on: Enterobacter aerogenes; assay: Pulp substrate method, percent kill of E. aerogenes (Table 2); assay type: cell-based; settings: for killing at 1 ppm / killing at 2 ppm / killing at 4 ppm / killing at 8 ppm / killing at 10 ppm / killing at 15 ppm / killing at 20 ppm / killing at 25 ppm: Klebsiella aerogenes, pulp substrate, read-out: % Kill of E. aerugenes; for bactericidal activity (in words): at both neutral and alkaline pH, conclusion from Table 2 (E. aerogenes and P. aeruginosa)
Method: Compounds 1 and 2 were tested by the pulp substrate method described in detail in U.S. Pat. No. 2,881,070, column 5, line 12--column 6, line 53. The disclosure of U.S. Pat. No. 2,881,070 is specifically incorporated here by reference. […] The tests utilized Enterobacter aerogenes and Pseudomonas aeruginosa in pulp substrates that had been buffered at pH 7.0 and 8.0.

Structure (SMILES)	MIC ([3]; pH 7.0, 28 days) [µg/mL]	MIC ([3]; pH 8.0, 28 days) [µg/mL]	killing at 1 ppm ([4]; pH 7.0) [%]	killing at 1 ppm ([4]; pH 8.0) [%]	killing at 2 ppm ([4]; pH 7.0) [%]	killing at 2 ppm ([4]; pH 8.0) [%]	killing at 4 ppm ([4]; pH 7.0) [%]	killing at 4 ppm ([4]; pH 8.0) [%]	killing at 8 ppm ([4]; pH 7.0) [%]	killing at 8 ppm ([4]; pH 8.0) [%]	killing at 10 ppm ([4]; pH 7.0) [%]	killing at 10 ppm ([4]; pH 8.0) [%]	killing at 15 ppm ([4]; pH 7.0) [%]	killing at 15 ppm ([4]; pH 8.0) [%]	killing at 20 ppm ([4]; pH 7.0) [%]	killing at 20 ppm ([4]; pH 8.0) [%]	killing at 25 ppm ([4]; pH 7.0) [%]	killing at 25 ppm ([4]; pH 8.0) [%]	bactericidal activity (in words) [4]	further results
COc1ccc(C(=O)C(Br)Br)cc1Br [Compound 2, 2,2,3'-tribromo-4'-methoxyacetophenone]	8 (≈ 20.7 µM)	4 (≈ 10.3 µM)	12	9	22	43	41	83	35	91	39	89	52	96	45	98	51	99	good bactericides	FUNGI rating in paint film preservation ([1]; 0.25%): 5.0; FUNGI rating in paint film preservation ([1]; 0.5%): 5.0; ALGAE rating in paint film preservation ([2]; 0.25%): 6.0; ALGAE rating in paint film preservation ([2]; 0.5%): 5.0
COc1ccc(C(=O)CBr)cc1Br [Compound 1, 2,3'-dibromo-4'-methoxyacetophenone]	4 (≈ 13 µM)	2 (≈ 6.49 µM)	31	73	25	81	38	93	0	97	10	92	18	99.8	96	100	99	97.8	good bactericides	
